In PMC6268373, “Systematic Study of the Physicochemical Properties of a Homologous Series of Aminobisphosphonates” (Molecules, 2012):
In brackets after ≈: the same amount, converted by molar mass. Like-named read-outs stand apart in the source and are kept apart here.

Tests used:
[1] = Effect of pH on aqueous solubility; settings: 21 °C, thermodynamic from solid
Experimental: (§1) A Jasco V-530 UV/Vis spectrophotometer was used for phosphorus determination at 880 nm wavelength. Filtered liquid samples were diluted to the appropriate volume with Milli-Q water and were digested with the persulphate oxidation technique in acidic medium at elevated temperature to convert aminobisphosponates to orthophosphate. In an acidic medium, ammonium molybdate and antimony potassium tartrate react with orthophosphate to form a phosphomolybdic acid that is reduced to intensively colored molybdenum blue by ascorbic acid [30].
(§2) The mixture containing an excess of the studied compound was first agitated for predetermined time with magnetic stirrer and before taking the sample mixture was allowed to stand for 24 h without stirring. The sample (about 5 mL) was taken from liquid above the solids, pH was measured and the sample was filtered through 0.2 µm membrane filter to remove any possible insoluble particles. The phosphorus concentration in the filtered sample solution was determined by using the spectrophotometric method described above.

[2] = pKa determination with Sirius instrument (PCA200)
[3] = Protonation constants by (traditional) potentiometric titration (TPT), SUPERQUAD; settings: 0.1 M NaNO3, 25 °C; for pKa: log K, TPT
From the text: Results were obtained from […] as overall stability constants (log β values); following the chosen zero level H2L^2−. This zero level H2L^2− was chosen in the calculations to avoid any accumulation of errors of protonation constants at different pH ranges. The log β results for reactions (4) and (5) obtained in the final refinements are listed in Table S3 (see Supporting Information) with error limits (±3σ), number of points/number of titrations and χ^2/Σ statistics.
The details of the experiments using (traditional) potentiometric titration are presented in the Supporting Information. The results of the determination by Sirius instrument are shown in the Supporting Information. Potentiometric titrations of the compounds were performed with the PCA200 apparatus (Sirius Analytical Instruments Ltd, Forest Row, East Sussex, UK).
Table S2. The effect of pH on aqueous solubility (mg/L) of aminoalkylbis(phosphonates) […]
Solubility (g/L) of Compound
Determination of the Protonation Constants Using (traditional) Potentiometric Titration. Reagents:
Aqueous 0.1 M NaOH was prepared from Titrisol ampoules (Merck) and 0.1 M HNO3 from Convol ampoules (BDH). The background solution was prepared by dissolving NaNO3 in deionised water.
The NaNO3 and NaCl used in reference electrode were p.a. grade (Merck). The water used in the dilutions and titration solutions was purified with Milli-RO and Milli-Q water purification systems […]
Potentiometric measurements: The protonation equilibria was studied in aqueous 0.1 M NaNO3 at 25.0 ± 0.1 °C through a series of potentiometric EMF titrations carried out with a Schott-Geräte GmbH […]
The cell arrangement for the measurement of the hydrogen ion concentration [H+] was as follows:
−RE […] equilibrium solution […] GE+ (1) where GE denotes a glass electrode (Schott N2680), and RE is Hg, Hg2Cl2 […] 0.01 M NaCl, 0.09 M NaNO3. Expression (2) is valid assuming that the activity coefficients are constant.
The cell parameter E0 and the liquid junction coefficient jH, valid in acidic solutions, were determined for each titration by adding a known amount of HNO3 to the background electrolyte. The value of the liquid junction coefficient jOH, valid in basic solutions, was determined periodically. Only stable EMF readings were used in the calculations.
During the measurements of the protonation equilibria, aqueous 0.1 M NaOH or 0.1 M HNO3 was […]
Four to eight independent titrations were carried out for each ligand. The number of data points used in […]
Data treatment: Protonation and deprotonation of the ligands were controlled by addition of HNO3 or NaOH. The curves of ZH versus pH were drawn to visualize the experimental data sets. ZH describes the average number of H+ ions added or liberated per mole of ligand and is given by the relationship […]
where CH denotes the total concentration of protons calculated over the zero level H2L2−.
In the evaluation of the equilibrium constants, the following two-component equilibria were utilized:
H2L2− ⇋ H2-xL(2+x)– + xH+ , x = 1–2; β–x (4) xH+ + H2L2− ⇋ Hx+2Lx–2, x = 1–3; βx (5)
Mathematical analysis of the systems involves a search for protonation models and equilibrium constants that best describe the experimental data. The calculations were carried out with the computer […]
1200). The sample standard deviation Σ and the χ2 statistics used as criteria in the selection of the models were those provided by the program. As a means to improve the confidence level, the error limits for log β values determined in this study are reported as three times the standard deviation estimated by the program.
Figure S2. ZH vs. pH for protonation of compounds (a) 1; (b) 2; (c) 3; (d) 4 and (e) 5.

[4] = Aqueous solubility of saturated solution at 21 °C (phosphorus determination by molybdenum blue spectrophotometry); settings: 21 °C
Experimental: as §1, §2

[5] = Thermal analysis (TG/DTA and TGA 7); assay type: physicochemical; settings: for Td: 5 °C/min; for Temp. range of 1st cleavage: lower limit taken at 0.5 wt-%
Experimental: Thermal decomposition paths with evaluation of crystal water content were obtained parallel with two instruments; Perkin Elmer STA 6000 thermogravimetric TG/DTA and Perkin Elmer TGA 7 analyzers (Perkin Elmer, Massachusetts, USA). Measurements were carried out in an open platinum crucible (the higher 5 mm crucible was used in TG/DTA and a shallower 2 mm crucible in TGA 7) under air atmosphere (flow rate of 45 mL/min) with a heating rate of 5 °C/min over the temperature range of 25−700 °C. The temperature calibration of STA 6000 was made using melting points of indium (156.60 °C) and zinc (419.5 °C) standards. For TGA 7 magnetic Curie-point calibration technique (Alumel, Ni, Perkalloy, Fe) was used. The weight balance of both instruments was calibrated by measuring a standard weight of 50 mg at room temperature. The sample weights used in the measurements were about 4–8 mg, and for each bisphosphonate, it was attempted to keep the same on both instruments. The melting/dehydration/decomposition behavior of the compounds was also visually monitored using a Stuart Scientific SMP3 melting point apparatus.

[6] = Effect of temperature on aqueous solubility; settings: water, thermodynamic from solid
Experimental: as §1, §2

[7] = cited from earlier work; for logK, pKa3: H2L2− + H+ ⇋ H3L−; for logK, pKa2: H3L− + H+ ⇋ H4L; for logK, pKa4: HL3− + H+ ⇋ H2L2−
[8] = overall protonation, zero level H2L2−

NCCCCCC(O)(P(=O)(O)O)P(=O)(O)O [Compound 4, (6-Amino-1-hydroxyhexylidene)bisphosphonic acid, reference compound]
solubility at 30 min ([1]; pH 0, aqueous buffer): 6340 µg/mL (≈ 22.9 mM)
solubility at 30 min ([1]; pH 1, aqueous buffer): 3840 µg/mL (≈ 13.9 mM)
solubility at 30 min ([1]; pH 2, aqueous buffer): 2900 µg/mL (≈ 10.5 mM)
solubility at 30 min ([1]; pH 3, aqueous buffer): 2970 µg/mL (≈ 10.7 mM)
solubility at 30 min ([1]; pH 4, aqueous buffer): 3090 µg/mL (≈ 11.1 mM)
solubility at 30 min ([1]; pH 5, aqueous buffer): 3220 µg/mL (≈ 11.6 mM)
solubility at 30 min ([1]; pH 6, aqueous buffer): 3390 µg/mL (≈ 12.2 mM)
solubility at 30 min ([1]; pH 7, aqueous buffer): 3420 µg/mL (≈ 12.3 mM)
solubility at 30 min ([1]; pH 8, aqueous buffer): 3530 µg/mL (≈ 12.7 mM)
solubility at 30 min ([1]; pH 9, aqueous buffer): 3080 µg/mL (≈ 11.1 mM)
solubility at 30 min ([1]; pH 10, aqueous buffer): 3180 µg/mL (≈ 11.5 mM)
solubility at 30 min ([1]; pH 11, aqueous buffer): 3380 µg/mL (≈ 12.2 mM)
pKa 2 (Sirius) [2]: 2.99
pKa 3 (Sirius) [2]: 6.36
pKa 4 (Sirius) [2]: 6.82
pKa ([3]; pKa1 (H4L + H+ ⇋ H5L+), approximate values): 0.94
pKa ([3]; pKa2 (H3L− + H+ ⇋ H4L)): 2.38
pKa ([3]; pKa3 (H2L2− + H+ ⇋ H3L−)): 6.62
pKa ([3]; pKa4 (HL3− + H+ ⇋ H2L2−)): 10.9
pKa ([3]; pKa5 (L4− + H+ ⇋ HL3−)): 11.9
logβx ± 3σ, x = 1 (H3L−) [3, 8]: 6.62 ± 0.02
logβx ± 3σ, x = 2 (H4L) [3, 8]: 9.00 ± 0.03
logβx ± 3σ, x = 3 (H5L+) [3, 8]: 9.94 ± 0.12
logβx ± 3σ, x = −1 (HL3−) [3, 8]: −10.86 ± 0.02
logβx ± 3σ, x = −2 (L4−) [3, 8]: −22.80 ± 0.02
solubility at 30 min ([4]; water, thermodynamic from solid): 3420 µg/mL (≈ 12.3 mM)
pH of saturated solution ([4]; saturated aqueous solution, agitation time 30 min): 2.26
Onset temperature of first cleavage ([5]; TG/DTA, higher crucible): 208 °C
Td ([5]; TG/DTA, higher crucible, air): 208 °C
Temp. range of 1st cleavage ([5]; TG/DTA, higher crucible): 196–260 °C
Onset temperature of first cleavage ([5]; TGA 7, shallow crucible): 215 °C
Td ([5]; TGA 7, shallow crucible, air): 215 °C
Temp. range of 1st cleavage ([5]; TGA 7, shallow crucible): 183–251 °C
Td (decomposition onset) ([5]; average from both instruments, air, heating rate 5 °C/min): 212 °C
solubility at 24 h ([6]; 4 °C): 4470 µg/mL (≈ 16.1 mM)
solubility at 24 h ([6]; 7.6 °C): 4600 µg/mL (≈ 16.6 mM)
solubility at 24 h ([6]; 21 °C): 5170 µg/mL (≈ 18.7 mM)
solubility at 24 h ([6]; 30 °C): 5770 µg/mL (≈ 20.8 mM)
solubility at 24 h ([6]; 40 °C): 7620 µg/mL (≈ 27.5 mM)
solubility at 24 h ([6]; 50 °C): 9550 µg/mL (≈ 34.5 mM)
logK, pKa3 ([7]; ref 4): 6.50
logK, pKa3 ([7]; ref 13): 5.49
logK, pKa2 ([7]; ref 4): 2.45
logK, pKa2 ([7]; ref 13): 2.90
logK, pKa4 ([7]; ref 4): 10.66
logK, pKa4 ([7]; ref 13): 8.63
logK, pKa5 ([7]; L4− + H+ ⇋ HL3−, ref 13): 10.9
